Legend:
[1] = system: HES1; assay: Western blot in assay cells; format: cell-based; settings: LS174T Notch cells, 12 h
Method: (§1) After another 12 h incubation with 50 ng/mL Dox, and cells were washed with PBS. Medium was changed to fresh medium with 2 and incubated for 12 h. […] (C–F) Relative protein levels analyzed by densitometry. […] P values were analyzed by Student’s t test.
(§2) Before another 12 h incubation, 50 ng/mL of doxycycline was added into each dish. Then, medium was changed to fresh medium with each compound. After 12 h incubation, cells were washed with PBS (500 μL) twice and then cells were collected by scraping. Using lysis buffer (20 mM Tris-HCl pH 7.4, 150 mM NaCl, 0.5% sodium deoxycholate, 10 mM EDTA, 1 mM sodium orthovanadate, and 0.1 mM NaF) containing a 1% […] inhibiotor cocktail (Nacalai Tesque, Tokyo, Japan), protein lysate was prepared. Protein lysates were separated by a 7.5%, 10%, 12.5% and 15% SDS-PAGE electrophoresis. Proteins were then transferred to a PVDF membrane (Bio-Rad Laboratories, Inc. Hercules, USA) electrophoretically. The membrane was incubated for 1 h with TBST (10 mM Tris-HCl pH 7.4, 100 mM NaCl and 0.1% Tween 20) containing 5% skimmed milk. […]

[2] = system: HES5; assay: Western blot in assay cells; format: cell-based; settings: LS174T Notch cells, 12 h
Method: as §1, §2

[3] = system: HES1; assay: Western blot in HPB-ALL cells; format: cell-based, human; settings: 10 μM, 72 h
Method: (§3) HPB-ALL cells (1 × 10^4 cells per well) were incubated in 96-well black plates at 37 °C for 72 h. Media also contained different concentrations of compound. After incubation, AlamarBlue was added 10 μL per well. After incubation for 4 h, using a fluorescence plate reader, fluorescence was measured and cell viability was determined. Data are presented as the mean with SD from three independent experiments. […] The effect on protein expression was analyzed by Western blotting. β-Actin was used as internal control. (D,E) Relative protein levels of NICD and HES1 analyzed by densitometry. Data are presented as the mean with SD from three independent experiments. *P < 0.05 is considered statistically significant. P values were analyzed by Student’s t test.
(§4) HPB-ALL cells were incubated in a 6 cm dish in 5 mL of RPMI-1640 medium with 10% FBS, Streptomycin (100 μg/mL) and Penicillin (100 unit/mL) at 5 × 10^5 cells per dish (1 × 10^6 cells per dish, when treatment with MG132). Media also contained different concentrations of compound. Cells were incubated at 37 °C for 72 h (12 h, when treatment with MG132). After incubation, cells were centrifuged and collected, and then washed with 500 μL of PBS twice. To prepare cell lysate and confirm protein expression levels, the same method as described above was used.

[4] = system: NICD; assay: Western blot in HPB-ALL cells; format: cell-based, human; settings: 10 μM, 72 h
Method: as §3, §4

COc1c(O)cc2oc3cc(O)c(CC=C(C)C)c(O)c3c(=O)c2c1C/C=C(\C)CCC=C(C)C [Compound 2, cowanin]
reduced: expression of HES1 [1] | expression of HES5 [2] | expression of HES1 [3] | expression of NICD [4]
